Experimental data reported in ChEMBL document CHEMBL1201862, “PubChem BioAssay data set” (2004).
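Dose response: 5 concentrations. Exposure: 48 h. Format: 96-well plates. Endpoint: linear interpolation; highest concentration if not reached. At the GI50, growth is halved.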 Active and inactive are the calls of the source. Rule as the data show it: active = GI50 up to about 1.1 µM and inactive = higher.

How the values were obtained:
Test in all cases: NCI-60 cell line screen, 48 h
HCC 2998 = system: HCC 2998
LXFL 529 = system: LXFL 529
DU-145 = system: DU-145
RXF 393 = system: RXF 393
MOLT-4 = system: MOLT-4
ACHN = system: ACHN
MDA-MB-435 = system: MDA-MB-435
RPMI-8226 = system: RPMI-8226
A498 = system: A498
CCRF-CEM = system: CCRF-CEM
OVCAR-3 = system: OVCAR-3
HCT-116 = system: HCT-116
BT-549 = system: BT-549
SF-268 = system: SF-268
Malme-3M = system: Malme-3M
SNB-75 = system: SNB-75
K562 = system: K562
COLO 205 = system: COLO 205
OVCAR-8 = system: OVCAR-8
NCI/ADR-RES = system: NCI/ADR-RES

O=C(c1ccc(Cl)cc1)c1cnc(Nc2ccccc2Cl)s1
GI50 (HCC 2998): 29 µM (inactive)
GI50 (LXFL 529): 16.3 µM (inactive)
GI50 (DU-145): 20.3 µM (inactive)
GI50 (RXF 393): 20.7 µM (inactive)
GI50 (MOLT-4): > 100 µM (inactive)
GI50 (ACHN): 18.9 µM (inactive)
GI50 (MDA-MB-435): 32.6 µM (inactive)
GI50 (RPMI-8226): > 100 µM (inactive)
GI50 (A498): 3.91 µM (inactive)
GI50 (CCRF-CEM): > 100 µM (inactive)
GI50 (OVCAR-3): 18.3 µM (inactive)
GI50 (HCT-116): 21 µM (inactive)
GI50 (BT-549): 20.7 µM (inactive)
GI50 (SF-268): 26.4 µM (inactive)
GI50 (Malme-3M): 19 µM (inactive)
GI50 (SNB-75): 19.6 µM (inactive)
GI50 (K562): > 100 µM (inactive)
GI50 (COLO 205): 37 µM (inactive)
GI50 (OVCAR-8): 29.2 µM (inactive)

COc1cc2c(c(OC)c1OC)-c1ccc(SC)c(=O)cc1C(CO)C2 (stereo unspecified)
GI50 (HCC 2998): 0.185 µM (active)
GI50 (LXFL 529): 0.136 µM (active)
GI50 (RXF 393): 0.104 µM (active)
GI50 (MOLT-4): 0.596 µM (active)
GI50 (ACHN): 0.513 µM (active)
GI50 (RPMI-8226): < 0.01 µM (active)
GI50 (A498): 0.107 µM (active)
GI50 (CCRF-CEM): 0.0891 µM (active)
GI50 (OVCAR-3): 0.164 µM (active)
GI50 (HCT-116): 0.12 µM (active)
GI50 (SF-268): 0.146 µM (active)
GI50 (Malme-3M): 0.0811 µM (active)
GI50 (SNB-75): 0.0326 µM (active)
GI50 (K562): 0.0575 µM (active)
GI50 (COLO 205): 0.166 µM (active)
GI50 (OVCAR-8): 0.188 µM (active)

Cc1ccc(NCCN(C)C)c2c(=O)c3cc(O)ccc3sc12
GI50 (HCC 2998): 3.79 µM (inactive)
GI50 (LXFL 529): 8.18 µM (inactive)
GI50 (DU-145): 2.18 µM (inactive)
GI50 (RXF 393): 1.22 µM (inactive)
GI50 (MOLT-4): 0.0454 µM (active)
GI50 (ACHN): 1 µM (active)
GI50 (MDA-MB-435): 1.53 µM (inactive)
GI50 (RPMI-8226): 2.57 µM (inactive)
GI50 (A498): 6.79 µM (inactive)
GI50 (CCRF-CEM): 0.284 µM (active)
GI50 (OVCAR-3): 9.33 µM (inactive)
GI50 (HCT-116): 1.96 µM (inactive)
GI50 (BT-549): 5.4 µM (inactive)
GI50 (SF-268): 4.35 µM (inactive)
GI50 (Malme-3M): 5.28 µM (inactive)
GI50 (SNB-75): 1.34 µM (inactive)
GI50 (K562): 1.5 µM (inactive)
GI50 (COLO 205): 8.85 µM (inactive)
GI50 (OVCAR-8): 2.44 µM (inactive)

CCOC(=O)C(=O)C1C(=O)Nc2ccccc21 (stereo unspecified)
GI50 (HCC 2998): > 100 µM (inactive)
GI50 (LXFL 529): > 100 µM (inactive)
GI50 (RXF 393): > 100 µM (inactive)
GI50 (MOLT-4): > 100 µM (inactive)
GI50 (ACHN): > 100 µM (inactive)
GI50 (RPMI-8226): > 100 µM (inactive)
GI50 (A498): > 100 µM (inactive)
GI50 (CCRF-CEM): > 100 µM (inactive)
GI50 (OVCAR-3): > 100 µM (inactive)
GI50 (HCT-116): > 100 µM (inactive)
GI50 (SF-268): > 100 µM (inactive)
GI50 (Malme-3M): > 100 µM (inactive)
GI50 (SNB-75): > 100 µM (inactive)
GI50 (K562): > 100 µM (inactive)
GI50 (COLO 205): > 100 µM (inactive)
GI50 (OVCAR-8): > 100 µM (inactive)

CCOC(OC1=C(C#N)CCC1)C(CC)[Se]c1ccccc1 (stereo unspecified)
GI50 (HCC 2998): 13.6 µM (inactive)
GI50 (LXFL 529): 16.5 µM (inactive)
GI50 (RXF 393): 20.9 µM (inactive)
GI50 (MOLT-4): 16.8 µM (inactive)
GI50 (ACHN): 29.8 µM (inactive)
GI50 (RPMI-8226): 17.9 µM (inactive)
GI50 (A498): 80.4 µM (inactive)
GI50 (CCRF-CEM): 15.6 µM (inactive)
GI50 (OVCAR-3): 22.1 µM (inactive)
GI50 (HCT-116): 26.2 µM (inactive)
GI50 (SF-268): 18.8 µM (inactive)
GI50 (Malme-3M): 11.4 µM (inactive)
GI50 (SNB-75): 24.2 µM (inactive)
GI50 (K562): 32.7 µM (inactive)
GI50 (COLO 205): 19.5 µM (inactive)
GI50 (OVCAR-8): 23.7 µM (inactive)

COc1ccc(CC2NCCc3cc(OC)c(OC)cc32)cc1Br (stereo unspecified)
GI50 (HCC 2998): 18 µM (inactive)
GI50 (LXFL 529): 26.9 µM (inactive)
GI50 (DU-145): > 100 µM (inactive)
GI50 (RXF 393): 15.1 µM (inactive)
GI50 (MOLT-4): 20.7 µM (inactive)
GI50 (ACHN): 33 µM (inactive)
GI50 (MDA-MB-435): 25.1 µM (inactive)
GI50 (RPMI-8226): 18.5 µM (inactive)
GI50 (A498): 30.1 µM (inactive)
GI50 (CCRF-CEM): 29.2 µM (inactive)
GI50 (OVCAR-3): 76.6 µM (inactive)
GI50 (HCT-116): 14.9 µM (inactive)
GI50 (BT-549): 87.5 µM (inactive)
GI50 (NCI/ADR-RES): 62.5 µM (inactive)
GI50 (SF-268): 63.5 µM (inactive)
GI50 (Malme-3M): 17.3 µM (inactive)
GI50 (SNB-75): 24.3 µM (inactive)
GI50 (K562): 16.6 µM (inactive)
GI50 (COLO 205): 16.8 µM (inactive)
GI50 (OVCAR-8): 50.2 µM (inactive)

CN(C)[C@H]1CC[C@H]2[C@@H]3CCC4C[C@@H](NC(=O)NC(Cc5ccccc5)c5nccs5)CC[C@]4(C)[C@H]3CC[C@]12C (stereo partly specified)
GI50 (HCC 2998): 1.75 µM (inactive)
GI50 (LXFL 529): 0.488 µM (active)
GI50 (DU-145): 2.28 µM (inactive)
GI50 (RXF 393): 1.54 µM (inactive)
GI50 (MOLT-4): 0.566 µM (active)
GI50 (ACHN): 1.76 µM (inactive)
GI50 (MDA-MB-435): 0.51 µM (active)
GI50 (RPMI-8226): 0.792 µM (active)
GI50 (A498): 1.69 µM (inactive)
GI50 (CCRF-CEM): 0.29 µM (active)
GI50 (OVCAR-3): 0.853 µM (active)
GI50 (HCT-116): 0.955 µM (active)
GI50 (BT-549): 1.79 µM (inactive)
GI50 (NCI/ADR-RES): 1.77 µM (inactive)
GI50 (SF-268): 1.66 µM (inactive)
GI50 (Malme-3M): 1.85 µM (inactive)
GI50 (SNB-75): 1.75 µM (inactive)
GI50 (K562): 0.128 µM (active)
GI50 (COLO 205): 0.82 µM (active)
GI50 (OVCAR-8): 0.667 µM (active)
